From EP0503411A1, “Substituted N-phenylpiperidines and medicaments thereof” (BASF Aktiengesellschaft, priority 1991, dated 1992)

Assays:
Sigma-Rezeptor = experiment: Sigma receptor binding test ([³H]-Ditolylguanidin binding, rat cerebrum membranes); set-up: species or system Ratte; details: [³H]-Ditolylguanidin-Bindungsstelle, 37°C
Description: Der verwendete Bindungsassay (Bindung von [³H]-Ditolylguanidin) erfaßt sogenannte "Haloperidolsensitive-Sigma-Rezeptoren", die eine hohe Affinität zum Haloperidol, aber nur geringe Affinität zum Phencyclidin und zu Opoiden aufweisen.
Life Sciences 47, 1073 (1990)], eingesetzt.
Rattengroßhirne wurden in dem 10fachen Volumen Homogenisierungspuffer (50 mmol Tris(hydroxymethyl)-amino-methan, 0,1 mmol Ethylendiamintetraacetat, pH=7,7) mit einem Polytron-Homogenisiator homogenisiert (20 sec.). Nach 15 Minuten Zentrifugation bei 40000 Umdrehungen/min wurde das erhaltene Pellet resuspendiert und die Suspension erneut 15 Minuten lang mit 40000 Umdrehungen/min zentrifugiert. Das hierbei erhaltene Pellet wurde im 5fachen Volumen Homogenisierungspuffer resuspendiert und bis zur weiteren Verwendung in flüssigem Stickstoff eingefroren.
Testsubstanz und Membranen (0,3 mg Protein) wurden in 0,3 ml Inkubationspuffer (5 mmol Tris(hydroxymethyl)-amino-methan, 0,1 mmol Ethylendiamintetraacetat, pH=7,7) 45 Minuten bei 37°C inkubiert. Nach Zugabe von 100 000 dpm [³H]-Ditolylguanidin (54,5 Ci/mmol) wurde noch 1 Stunde inkubiert. Die Membranen wurden über GF/B-Filter (dunn-Labortechnik, Asbach) filtriert und mit einem 37°C warmen Waschpuffer (5 mmol Tris(hydroxymethyl)-amino-methan, 0,1 mmol Ethylendiamintetraacetat, pH=7,4) gewaschen. Die verbleibende Radioaktivität auf den Filtern wurde durch Flüssig-Scintillationszählung gemessen. Die Bindungsdaten wurden durch iterative Anpassungsprogramme analysiert.

Meerschweinchenherzen = experiment: QT-prolonging effect, ECG measurement on isolated Langendorff-perfused guinea pig heart; set-up: species or system Duncin-Hartley-Meerschweinchen; details: concentration in perfusate giving 20 % increase of initial QT duration, cumulative addition every 15 min, from linear regression
Description: Die Wirkung der Phenylpiperidine I als Repolarisationshemmstoffe kann man durch EKG-Messungen belegen. Dabei unterteilt man die Herzperiode zeitlich in Systole (Zusammenziehen des Herzens), auch QT-Dauer genannt, und Diastole (Erschlaffung des Herzens mit Blutfüllung der Herzkammern). Repolarisationshemmstoffe bewirken nun eine Verlängerung der QT-Dauer ohne die Vorhofkammer-überleitungszeit (PQ-Dauer) und die Anspannungszeit (QRS-Dauer, Beginn der Systole bis zum öffnen der Semilunarklappen) wesentlich zu verändern (s. Pschyrembel, 254. Auflage, 1982).
Die Wirksamkeit der erfindungsgemäßen Verbindungen als Repolarisationshemmstoffe läßt sich im Tierversuch durch EKG-Messungen beispielsweise am Meerschweinchenherzen untersuchen (s. Basic Res. Cardiol. 82 (1987) 437; J. Pharmacol. Methods 21 (1989) 195). Zum Vergleich der Wirksamkeit mehrerer Substanzen dient dabei zum Beispiel die Dosis eines Wirkstoffes, bei der eine 20 %ige Zunahme des QT-Ausgangswertes eintritt (ED₂₀ %). Hierzu trägt man die logarithmierten Dosiswerte der jeweiligen Substanzen gegen die experimentell gefundenen relativen Änderungen der QT-Dauer auf, und ermittelt mittels linearer Regression die Funktionsgleichung einer Geraden, aus der man dann den ED20 %-Wert berechnen kann.
Mit dieser Methode wurden die ED20 %-Werte erfindungsgemäßer Verbindungen bestimmt (s. Tabelle 1). Als Vergleichssubstanz diente D-Sotalol [4'-(1-Hydroxy-2-(isopropylamino)-ethyl)methansulfonanilid].
Als Versuchstiere dienten männliche Duncin-Hartley-Meerschweinchen mit einem Körpergewicht von 300 bis 350 g. 30 min nach Applikation von 1250 I.E. Heparin/kg Körpergewicht in den Bauchraum wurden die Tiere durch Genickschlag getötet. Nach dem Durchtrennen der Kopfschlagadern zum Entbluten, wurde der Bruststamm geöffnet, das Herz herausgetrennt und an eine Perfusionsapparatur angeschlossen. Die Perfusion erfolgte nach Langendorff mit Sauerstoff angereicherter auf 37°C erwärmter Krebs-Henseleit-Lösung (NaCl 6896 mg/l; KCl 350 mg/l; MgSO₄ 285 mg/l; CaCl₂ 370 mg/l; KH₂PO₄ 161 mg/l; NaHCO₃ 2090 mg/l; Glukose 2000 mg/l). Dabei wurde das Perfusionsvolumen pro Zeiteinheit bei einem Gesamtvolumen von 100 ml auf 4 bis 6 ml/min und der Perfusionsdruck auf 60 bis 70 mm Hg eingestellt. Nach einer Äquilibrierzeit von 30 min wurde zirkulierend perfundiert.
Die EKG-Messungen wurden über zwei Silberelektroden, die auf der Herzoberfläche im oberen Bereich der linken Koronararterie und auf der Rückseite des Herzens auf Höhe der Ventilebene angebracht waren, aufgenommen. Gemessen wurden die PQ-, QT- und QRS-Zeiten sowie die Herzfrequenz.
Die Substanzgabe erfolgte kumulativ im Abstand von 15 min ins Perfusat.

Molecule “1-(4-Nitrophenyl)-4-(4-phenyl-1-piperidinoyl)-piperidin [Beispiel 8]” has a Ki (Sigma-Rezeptor) of 2.8 nM.
With `CN(Cc1ccccc1)C1CCCN(c2ccc([N+](=O)[O-])cc2)C1` (stereo not shown) [Beispiel 11, 3-(N-Benzyl-N-methylamino)-1-(4-nitrophenyl)-piperidin] the ED20 % (Meerschweinchenherzen) was 1,1 µmol/l and the Ki (Sigma-Rezeptor) was 2 nM.
For `CN(Cc1ccccc1)CC1CCN(c2ccc([N+](=O)[O-])cc2)CC1` [Beispiel 2, 4-(N-Benzyl-N-methylaminomethyl)-1-(4-nitrophenyl)-piperidin], the ED20 % (Meerschweinchenherzen) was 0,42 µmol/l and the Ki (Sigma-Rezeptor) was 11 nM.
With `CC(C)NCC(O)c1ccc(NS(C)(=O)=O)cc1` [D-Sotalol, 4'-(1-Hydroxy-2-(isopropylamino)-ethyl)methansulfonanilid, reference compound] the ED20 % (Meerschweinchenherzen) was 16,0 µmol/l.
With `N#Cc1ccc(N2CCC(N3CCN(c4ccc([N+](=O)[O-])cc4)CC3)CC2)cc1` [Beispiel 3, N-[4-N(4-Cyanophenyl)piperidinoyl]-N'³(4-nitrophenyl)-piperazin] the ED20 % (Meerschweinchenherzen) was 0,031 µmol/l.
With `CN(Cc1ccc(NS(C)(=O)=O)cc1)CC1CCN(c2ccc(NS(C)(=O)=O)cc2)CC1` [Beispiel 10, 1-(4-Methansulfonamidophenyl)-4-(N-(4-methansulfonamidobenzyl)-N-methylaminomethyl)-piperidin] the ED20 % (Meerschweinchenherzen) was 0,96 µmol/l.
In the case of `Cc1ccccc1NC(=N)Nc1ccccc1C` [DTG, 1,3-Di-o-tolyl-guanidin, reference compound], the Ki (Sigma-Rezeptor) is reported as 29.1 nM.
With `CN(CC(O)c1ccc(F)cc1)C1CCN(c2ccc([N+](=O)[O-])cc2)CC1` (stereo not shown) [Beispiel 12, 4-[N,N-[2-(4-Fluorphenyl)-2-hydroxyethyl]methylamino]-1-(4-nitrophenyl)-piperidin] the ED20 % (Meerschweinchenherzen) was 0,21 µmol/l.
